Molecules are shown by their SMILES. Where only a bound is given, the exact number is not on record here.

Experimental findings from patent publication US6833368B2, “1, 2, 5, 10-tetrahydropyridazino[4, 5-b]quinoline-1,10-diones and their use for the treatment of pain” (AstraZeneca AB, priority 2000, dated 2004) are described below.

Data set [1] deals with T1, NMDA receptor glycine site (Rattus norvegicus, UniProt P35439).
T1 construct: The rat brain membranes used in the experiments were obtained from Analytical Biological Services Inc; tissue Analytical Biological Services Inc; host or cells: rat brain membranes (cerebral cortex and hippocampus, Sprague Dawley)
Description: Test A: Inhibition of binding of [3H]-MDL105,519 to brain membranes. The note with it: inhibition of 1.2 nM [3H]MDL105,519 binding to brain membranes; rat or human membranes not specified. On the procedure:
Test A: Inhibition of Binding of [^3H]-MDL105,519:
Binding of compounds to the NMDA receptor glycine site may be assessed by measuring the ability of test compounds to inhibit the binding of tritiated MDL105,519 to brain membranes bearing the receptor.
Rat Brain Membranes: The rat brain membranes used in the experiments were obtained from Analytical Biological Services Inc., and were prepared substantially in accordance with the method of B. M. Baron et al., J. Pharmacol. Exp. Ther. 250, 162 (1989). Briefly, fresh brain tissue including cerebral cortex and hippocampus from […] Sprague Dawley rats was homogenized in 0.32 M sucrose and centrifuged at low speed to separate cellular membranes from other cellular components. The membranes were then washed 3 times using deionized water, followed by treatment with 0.04% Triton X-100. Finally, membranes were washed six times in 50 mM Tris citrate buffer, pH 7.4, and frozen at −80° C. until use.
[^3H]MDL105,519 (72 Ci/mmol) was purchased from Amersham. Cold MDL105,519 was purchased from Sigma/RBI. Binding assays were performed substantially in accordance with the protocol of B. M. Baron et al., J. Pharmacol. Exp. Ther. 279, 62 (1996), as follows. On the day of the experiment, brain membranes were thawed at room temperature and suspended in 50 mM tris acetate buffer, pH 7.4 (“TAB”). Seventy-five micro grams per milliliter protein (by using the BioRad dye) were used for competition binding. The experiments were carried out using 96-well plates. Membranes were incubated with 20 μL of compounds of various concentrations and 1.2 nM [^3H]MDL105,519 for 30 minutes at room temperature in a total volume of 250 μL. Non specific binding was determined by using 100 μM of unlabeled MDL105,519. The unlabeled MDL105,519 and compounds were dissolved as 12.5 mM stock solutions in DMSO. Final DMSO concentration in each well was kept below 1%, which concentration was found not to alter the binding results. After incubation, unbound [^3H]MDL105,519 was removed by filtration onto GF/B Unifilter plates using a Packard harvester. Filters were washed four times with ice cold TAB (total of 1.2 mL buffer). The plates were dried overnight at room temperature and bound radioactivity was measured on a Packard TopCount after the addition of 45 μL per well of the MICROSCINT O.
Human Brain Membranes: Human brain membranes were obtained from Analytical Biological Services Inc., and assays were performed as described for rat membranes.
Data analysis: Data was analyzed using a Microsoft Excel spreadsheet and GraphPad Prizm software and potency of compounds is expressed as the Ki (nM).

In data set [2] the test system is CCI rats (thermal hyperalgesia). Conditions: oral, three times daily for 5 days.
Description: The anti-hyperalgesic properties of a compound may be tested with the Chronic Constriction Injury (“CCI”) model.
Procedurally, Sprague-Dawley rats (250-350 g) are anesthetized with sodium pentobarbital and the common sciatic nerve is exposed at the level of the mid thigh by blunt dissection through the biceps femoris. A section of nerve (about 7 mm), proximal to the sciatic trifucation, is freed of tissue and ligated at four positions with chromic gut suture. The suture is tied with about 1 mm spacing between ligatures. The incision is closed in layers and the animals are allowed to recuperate. […] To perform the test, animals are habituated on an elevated glass floor. A radiant heat source is aimed at the mid-plantar hindpaw (sciatic nerve territory) through the glass floor with a 20 second cut-off used to prevent injury to the skin. The latencies for the withdrawal reflex in both hind paws are recorded.
Responses to test compounds are evaluated at different times after oral administration to determine the onset and duration of compound effect. When performing the test, groups of CCI rats receive either vehicle or the test compound orally three times daily for 5 days. […] Compound efficacy is expressed as mean percentage decrease of hyperalgesia compared to that of vehicle-treated animals, calculated as follows: [formula]

As a reminder, the Ki is a dissociation constant, usually derived from enzyme kinetics or from competition with a known ligand. Regarding `O=c1c2ccc(Cl)cc2[nH]c2c(O)nn(C3CCSc4ccccc43)c(=O)c12` (racemic) [Ex. 1, (+/−)-7-chloro-4-hydroxy-2-(2H,3H,4H-Benzo[e]thian-4-yl)-1,2,5,10-tetrahydropyridazino[4,5-b]quinoline-1,10-dione], in data set [1], the affinity corresponds to a Ki of 411 nM. In addition, the “Test C % Inh. (percent decrease of hyperalgesia at MED)” value in data set [2] (at the MED, versus vehicle-treated animals) turned out to be 56%. The “Test C MED (minimum effective dose)” value in data set [2] (dose giving statistically significant decrease in hyperalgesia) was 30 mg/kg/day.

For orientation: melting point means the temperature, or range, at which the solid turns liquid. Take `O=c1c2ccc(Cl)cc2[nH]c2c(O)nn(C3CCOc4ccccc43)c(=O)c12` (racemic) [Ex. 2, (+/−)-7-Chloro-4-hydroxy-2-(chroman-4-yl)-1,2,5,10-tetrahydropyridazino[4.5-b]quinoline-1.10-dione]: the melting point is greater than 300 °C. Besides, in data set [1], affinity was put at a Ki of 557 nM.

In the case of `O=c1c2ccc(Cl)cc2[nH]c2c(O)nn(C3CCCc4sccc43)c(=O)c12` (racemic) [Ex. 3, (+/−)-7-Chloro-4-hydroxy-2-(4,5,6,7-tetrahydrobenzo[b]thien-4-yl)-1,2,5,10-tetrahydropyridazino[4,5-b]quinoline-1.10-dione], the melting point is greater than 300 °C. In data set [1], this compound gave a Ki of 514 nM.

`O=c1c2ccc(Cl)cc2[nH]c2c(O)nn(C3CCCc4ccccc43)c(=O)c12` (racemic) [Ex. 4, (+/−)-7-Chloro-4-hydroxy-2-(1,2,3,4-tetrahydronaphth-1-yl)-1.2,5,10-tetrahydropyridazino[4,5-b]quinoline-1,10-dione]: the melting point is greater than 300 °C. In data set [1], this compound came in with a Ki of 725 nM.
